{"source": "patent US9241951B2", "about": "“Of gastrointestinal health, immunity and performance by dietary intervention” (BIOATLANTIS LTD, priority 2009, dated 2016)", "format_in_all_cases": "in vivo, pig", "key": {"[1]": {"experiment": "Animal performance and nutrient digestibility, Example 5", "conditions": "increasing LAM 0, 300, 600 ppm, 21 days", "source_text": "(§1) 21 pigs with an initial weight of 17.9±2.2 Kg were assigned to one of the 3 dietary treatments: (T1) control; (T2) basal diet+300 ppm LAM; (T3) basal diet+600 ppm LAM. Experimental feeding continued for 21 days ad libitum. Diets were formulated to have similar digestible energy (DE) (14.4 MJ/Kg) and ileal digestible lysine (12.5 g/Kg)."}, "MUC5AC": {"test_system": "MUC5AC", "experiment": "Mucin gene expression in ileum and colon (qPCR), Example 5", "conditions": "colon; LAM supplementation", "experimental": "as §1\n(§2) Ileal and colonic tissues was stabilised in RNAlater® solution and stored overnight at 4° C. The following day, RNAlater® was removed and samples were stored at −86° C. prior to RNA extraction.\n(§3) Tissue samples for RNA extraction were removed from −86° C. and homogenised. 500 μl of lysis solution/2-ME was added to each sample and these were mechanically disrupted using one 5 mm stainless steel bead per sample. These were then placed in a Tissue Lyser (Qiagen) and lysates were homogenised for 3 mins and transferred to a GenElute Filtration Column (Sigma Aldrich) and RNA was extracted. 1 µg of total RNA was used for cDNA synthesis using oligo(dT)20 primer in a final reaction volume of 20 μl with Superscript™ III First-Strand synthesis system for reverse transcriptase-polymerase chain reaction (RT-PCR) (Invitrogen Life Technologies, Carlsbad, Calif.). At the last step of cDNA synthesis, treatment with E. coli RNase H (Invitrogen Corp.) was performed to digest the remaining RNA/mRNA template, resulting in the production of the single-stranded cDNA template for subsequent qRT-PCR reactions.\n(§4) All porcine primers for the cytokine genes interferon gamma (IFN-γ), interleukin-1α (IL-1α), IL-6, IL-8, IL-10, IL-17, tumour necrosis factor (TNF-α), the mucin genes (MUCs 1, 2, 4, 5AC, 12, 13 and 20) and three reference genes, β-actin (ACTB), Glyceraldehyde-3-phosphate dehydrogenase (GAPDH) and Peptidylprolyl isomerase A (PPIA), were designed using Primer Express™ (PE Applied Biosystems, Foster City, Calif.) and synthesised by MWG Biotech (Milton Keynes, UK). These reference genes were previously validated for use in porcine tissue and qPCR was then carried out on the cDNA using the ABI PRISM 7900HT Fast sequence detection system for 96-well plates (Applied Biosystems, Foster City, Calif.). All samples were prepared in duplicate using SYBR Green Fast PCR Master Mix (Applied Biosystems, Foster City, Calif.), cDNA as template and specific primers for the genes selected. For each reaction 5 μl cDNA, 1.2 μl (forward and reverse primer mix, 5 μM), 10 μl Fast SYBR Green PCR Master Mix (PE Applied Biosystems, Foster City, Calif.) was added and made up to a final volume of 20 μl. The two step PCR program was as follows: 95° C. for 10 minutes for 1 cycle followed by 95° C. for 15 seconds and 60° C. for 1 minute for 40 cycles. The raw Ct values for the reference genes were converted to relative quantities using the formula Q=E ^ΔCt where E is the PCR efficiency of the assay and ^ΔCt is the value calculated for the difference between the lowest Ct value for each gene minus the Ct value of the sample in question. The relative quantities of the endogenous controls were then analysed for stability in geNorm (Vandesompele et al., 2002). The stability ‘M’ value generated by the geNorm application for the selected endogenous controls (ACTB, GAPDH and PPIA) indicated their suitability as endogenous controls for these intestinal samples. The geometric mean of the relative quantities for ACTB, GAPDH and PPIA (normalisation factor) was then calculated using geNorm. The relative quantities of each target gene were divided by the normalisation factor (obtained in geNorm) for that sample to give the final normalised relative expression."}, "MUC12": {"test_system": "MUC12", "experiment": "Mucin gene expression in ileum and colon (qPCR), Example 5", "conditions": "LAM supplementation", "experimental": "as §1, §2, §3, §4"}, "MUC13": {"test_system": "MUC13", "experiment": "Mucin gene expression in ileum and colon (qPCR), Example 5", "conditions": "LAM supplementation", "experimental": "as §1, §2, §3, §4"}, "MUC20": {"test_system": "MUC20", "experiment": "Mucin gene expression in ileum and colon (qPCR), Example 5", "conditions": "LAM supplementation", "experimental": "as §1, §2, §3, §4"}, "MUC2": {"test_system": "MUC2", "experiment": "Mucin gene expression in ileum and colon (qPCR), Example 5", "experimental": "as §1, §2, §3, §4"}, "MUC1": {"test_system": "MUC1", "experiment": "Mucin gene expression in ileum and colon (qPCR), Example 5", "conditions": "colon; LAM supplementation", "experimental": "as §1, §2, §3, §4"}, "MUC4": {"test_system": "MUC4", "experiment": "Mucin gene expression in ileum and colon (qPCR), Example 5", "experimental": "as §1, §2, §3, §4"}, "Escherichia coli": {"test_system": "Escherichia coli", "experiment": "Faecal microbiology, Example 4", "conditions": "LAM diets (300 ppm) v no LAM supplementation (7.84)", "source_text": "One hundred and ninety two piglets were weaned at twenty four days of age, with an initial live weight of 6.4±0.785 Kg and assigned to one of four dietary treatments or 21 days post weaning. The dietary treatments consisted of (T1) basal diet, (T2) basal diet with 300 ppm LAM, (T3) basal diet with 236 ppm FUC, (T4) Basal diet with 300 ppm LAM and 236 ppm FUC. Diets were formulated to have identical concentrations of digestible energy (DE) (16 MJ/Kg) and ileal digestible lysine (14 g/Kg). All amino acid requirements were met relative to lysine (Close, 1994). Chromium III oxide was added to the diets for determination of nutrient digestibility. The LAM and FUC were derived from Laminaria hyperborea.\nPiglets were housed in groups of 4 and offered feed twice daily. Water was supplied ad-libitum. Any pig displaying symptoms of illness was treated appropriately and recorded. Pigs were weighed on day 0 (day of weaning), 7, 14 and 21. Feed intake was monitored weekly. Fresh faecal samples were taken on day 10 and were analysed for E. coli and Lactobacilli concentrations. Faeces samples were collected from each pen on day 12-17 and were retained for chemical analysis. Fresh faecal samples were removed on day 14 and were frozen and retained for volatile fatty acid analysis. Fresh faecal samples were taken on day 17 for pH determination.\nA sample was serially diluted (1:10) in 9.0 ml aliquots of maximum recovery diluent (MRD, Oxoid, Basingstoke, UK), and spread plated (0.1 ml aliquots) onto selective agars. Lactobacillus spp. were isolated on de Man, Rogosa, Sharp agar (MRS, Oxoid) with overnight incubation at 37° C. in 5% CO2. The API 50 CHL (BioMerieux, France) kit was used to confirm suspect Lactobacilli spp. E. coli species were isolated on MacConkey agar (Oxoid), following aerobic incubation at 37° C. for 18-24 hours. Suspect colonies were confirmed with API 20E (BioMerieux, France)."}}}
{"substance": "laminarin", "values": [{"measurement": "nutrient digestibility coefficients (DM, OM, ash, N or GE)", "setting": "[1]", "result": "no effect"}, {"measurement": "performance (food intake, daily gain or food conversion ratio)", "setting": "[1]", "result": "no effect"}, {"measurement": "MUC5AC expression", "setting": "MUC5AC", "result": "no effect"}, {"measurement": "MUC12 expression", "setting": "MUC12; colon", "result": "no effect"}, {"measurement": "MUC12 expression", "setting": "MUC12; ileum", "result": "no effect"}, {"measurement": "MUC13 expression", "setting": "MUC13; colon", "result": "no effect"}, {"measurement": "MUC13 expression", "setting": "MUC13; ileum", "result": "no effect"}, {"measurement": "MUC20 expression", "setting": "MUC20; colon", "result": "no effect"}, {"measurement": "MUC20 expression", "setting": "MUC20; ileum", "result": "no effect"}, {"measurement": "MUC2 expression", "setting": "MUC2; colon, LAM 600 ppm", "result": "significantly increased"}, {"measurement": "MUC2 expression", "setting": "MUC2; ileum, LAM 300 ppm relative to control animals", "result": "increase"}, {"measurement": "increased MUC2 expression", "setting": "MUC2; ileum, LAM 600 ppm", "result": "not observed"}, {"measurement": "MUC1 expression", "setting": "MUC1", "result": "no effect"}, {"measurement": "MUC4 expression", "setting": "MUC4; colon, LAM 600 ppm", "result": "significantly increased"}, {"measurement": "MUC4 expression", "setting": "MUC4; ileum, LAM supplementation", "result": "no effect"}, {"measurement": "faecal E. coli population", "setting": "Escherichia coli", "result": 7.22}]}
